Results published in US10597388B2, “Pyridazinone herbicides” (FMC CORPORATION, priority 2014, dated 2020).

How the values were obtained:
Assay in all cases: Test D controlled growth environment herbicide test, pre- and postemergence
Format in all cases: in vivo
[1] = test system: bluegrass (annual bluegrass, Poa annua)
Outline: (§1)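 Species sown in silt loam and sprayed preemergence, or grown in peat-based medium to 2–18 cm (1- to 4-leaf stage) and sprayed postemergence, with compounds in non-phytotoxic solvent plus surfactant. Visual injury scored versus controls after 14–21 d in a controlled environment, 0 (no effect) to 100 (complete control).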

[2] = test system: pigweed (Amaranthus retroflexus)
Outline: as §1

[3] = test system: oilseed rape (Brassica napus)
Outline: as §1

[4] = test system: mustard, wild (wild mustard, Sinapis arvensis)
Outline: as §1

[5] = test system: chamomile (scentless chamomile, Matricaria inodora)
Outline: as §1

[6] = test system: field poppy (Papaver rhoeas)
Outline: as §1

[7] = test system: barley, winter (winter barley, Hordeum vulgare)
Outline: as §1

[8] = test system: oat, wild (wild oat, Avena fatua)
Outline: as §1

[9] = test system: radish, wild (wild radish, Raphanus raphanistrum)
Outline: as §1

[10] = test system: buckwheat, wild (wild buckwheat, Polygonum convolvulus)
Outline: as §1

[11] = test system: barley, spring (spring barley, Hordeum vulgare)
Outline: as §1

[12] = test system: speedwell (bird's-eye speedwell, Veronica persica)
Outline: as §1

[13] = test system: galium (catchweed bedstraw, Galium aparine)
Outline: as §1

[14] = Postemergence, 31 g ai/ha, scale 0 to 100 (0 no effect, 100 complete control)
[15] = Postemergence, 125 g ai/ha, visual rating on scale 0 (no effect) to 100 (complete control), 14 to 21 d
[16] = Postemergence, 250 g ai/ha, scale 0 to 100 (0 no effect, 100 complete control)
[17] = Preemergence, 62 g ai/ha, scale 0 to 100 (0 no effect, 100 complete control)
[18] = Preemergence, 125 g ai/ha, scale 0 to 100 (0 no effect, 100 complete control)
[19] = Preemergence, 250 g ai/ha, scale 0 to 100 (0 no effect, 100 complete control)
[20] = postemergence, 62 g ai/ha, scale 0 to 100, 0 no effect, 100 complete control

CC(=O)Oc1c(C)nn(C)c(=O)c1-c1c(C)cc(C)c2ccccc12 [Compound 153]
Bluegrass plant response rating [1, 14]: 15
Plant response rating, Bluegrass [1, 15]: 30
Plant response rating, Bluegrass [1, 16]: 40
Plant response rating (scale of 0 to 100), Bluegrass ([1]; Preemergence, 31 g ai/ha): 70
Plant response rating, Bluegrass [1, 17]: 75
Plant response rating, Bluegrass [1, 18]: 75
Plant response rating, Bluegrass [1, 19]: 75
Plant response rating, Bluegrass [1, 20]: 15
Pigweed plant response rating [2, 14]: 80
Plant response rating, Pigweed [2, 15]: 80
Plant response rating, Pigweed [2, 16]: 85
Plant response rating (scale of 0 to 100), Pigweed ([2]; Preemergence, 31 g ai/ha): 100
Plant response rating (scale of 0 to 100), Pigweed ([2]; Preemergence, 62 g ai/ha): 100
Plant response rating, Pigweed [2, 18]: 100
Plant response rating, Pigweed [2, 19]: 100
Plant response rating, Pigweed [2, 20]: 75
Oilseed Rape plant response rating [3, 14]: 70
Plant response rating, Oilseed Rape [3, 15]: 85
Plant response rating, Oilseed Rape [3, 16]: 98
Plant response rating (scale of 0 to 100), Oilseed Rape ([3]; Preemergence, 31 g ai/ha): 75
Plant response rating (scale of 0 to 100), Oilseed Rape ([3]; Preemergence, 62 g ai/ha): 85
Plant response rating, Oilseed Rape [3, 18]: 90
Plant response rating, Oilseed Rape [3, 19]: 100
Plant response rating, Oilseed Rape [3, 20]: 85
Mustard, Wild plant response rating [4, 14]: 98
Plant response rating, Mustard, Wild [4, 15]: 100
Plant response rating, Mustard, Wild [4, 16]: 100
Plant response rating (scale of 0 to 100), Mustard, Wild ([4]; Preemergence, 31 g ai/ha): 100
Plant response rating (scale of 0 to 100), Mustard, Wild ([4]; Preemergence, 62 g ai/ha): 100
Plant response rating, Mustard, Wild [4, 18]: 100
Plant response rating, Mustard, Wild [4, 19]: 100
Plant response rating, Mustard, Wild [4, 20]: 98
Chamomile plant response rating [5, 14]: 70
Plant response rating, Chamomile [5, 15]: 100
Plant response rating, Chamomile [5, 16]: 100
Plant response rating (scale of 0 to 100), Chamomile ([5]; Preemergence, 31 g ai/ha): 100
Plant response rating (scale of 0 to 100), Chamomile ([5]; Preemergence, 62 g ai/ha): 100
Plant response rating, Chamomile [5, 18]: 100
Plant response rating, Chamomile [5, 19]: 100
Plant response rating, Chamomile [5, 20]: 95
Field Poppy plant response rating [6, 14]: 75
Plant response rating, Field Poppy [6, 15]: 100
Plant response rating, Field Poppy [6, 16]: 100
Plant response rating (scale of 0 to 100), Field Poppy ([6]; Preemergence, 31 g ai/ha): 100
Plant response rating (scale of 0 to 100), Field Poppy ([6]; Preemergence, 62 g ai/ha): 100
Plant response rating, Field Poppy [6, 18]: 100
Plant response rating, Field Poppy [6, 19]: 100
Plant response rating, Field Poppy [6, 20]: 95
Barley, Winter plant response rating [7, 14]: 0
Plant response rating, Barley, Winter [7, 15]: 10
Plant response rating, Barley, Winter [7, 16]: 25
Plant response rating (scale of 0 to 100), Barley, Winter ([7]; Preemergence, 31 g ai/ha): 0
Plant response rating, Barley, Winter [7, 17]: 10
Plant response rating, Barley, Winter [7, 18]: 25
Plant response rating, Barley, Winter [7, 19]: 40
Plant response rating, Barley, Winter [7, 20]: 5
Oat, Wild plant response rating [8, 14]: 85
Plant response rating, Oat, Wild [8, 15]: 90
Plant response rating, Oat, Wild [8, 16]: 98
Plant response rating (scale of 0 to 100), Oat, Wild ([8]; Preemergence, 31 g ai/ha): 80
Plant response rating (scale of 0 to 100), Oat, Wild ([8]; Preemergence, 62 g ai/ha): 95
Plant response rating, Oat, Wild [8, 18]: 98
Plant response rating, Oat, Wild [8, 19]: 98
Plant response rating, Oat, Wild [8, 20]: 85
Radish, Wild plant response rating [9, 14]: 80
Plant response rating, Radish, Wild [9, 15]: 100
Plant response rating, Radish, Wild [9, 16]: 100
Plant response rating (scale of 0 to 100), Radish, Wild ([9]; Preemergence, 31 g ai/ha): 80
Plant response rating (scale of 0 to 100), Radish, Wild ([9]; Preemergence, 62 g ai/ha): 98
Plant response rating, Radish, Wild [9, 18]: 98
Plant response rating, Radish, Wild [9, 19]: 100
Plant response rating, Radish, Wild [9, 20]: 85
Buckwheat, Wild plant response rating [10, 14]: 95
Plant response rating, Buckwheat, Wild [10, 15]: 100
Plant response rating, Buckwheat, Wild [10, 16]: 100
Plant response rating (scale of 0 to 100), Buckwheat, Wild ([10]; Preemergence, 31 g ai/ha): 40
Plant response rating, Buckwheat, Wild [10, 17]: 60
Plant response rating, Buckwheat, Wild [10, 18]: 85
Plant response rating, Buckwheat, Wild [10, 19]: 85
Plant response rating, Buckwheat, Wild [10, 20]: 95
Barley, Spring plant response rating [11, 14]: 5
Plant response rating, Barley, Spring [11, 15]: 15
Plant response rating, Barley, Spring [11, 16]: 30
Plant response rating (scale of 0 to 100), Barley, Spring ([11]; Preemergence, 31 g ai/ha): 0
Plant response rating, Barley, Spring [11, 17]: 0
Plant response rating, Barley, Spring [11, 18]: 25
Plant response rating, Barley, Spring [11, 19]: 40
Plant response rating, Barley, Spring [11, 20]: 5
Speedwell plant response rating [12, 14]: 75
Plant response rating, Speedwell [12, 15]: 90
Plant response rating, Speedwell [12, 16]: 100
Plant response rating (scale of 0 to 100), Speedwell ([12]; Preemergence, 31 g ai/ha): 100
Plant response rating (scale of 0 to 100), Speedwell ([12]; Preemergence, 62 g ai/ha): 100
Plant response rating, Speedwell [12, 18]: 100
Plant response rating, Speedwell [12, 19]: 100
Plant response rating, Speedwell [12, 20]: 75
Galium plant response rating [13, 14]: 100
Plant response rating, Galium [13, 15]: 100
Plant response rating, Galium [13, 16]: 100
Plant response rating (scale of 0 to 100), Galium ([13]; Preemergence, 31 g ai/ha): 85
Plant response rating (scale of 0 to 100), Galium ([13]; Preemergence, 62 g ai/ha): 95
Plant response rating, Galium [13, 18]: 95
Plant response rating, Galium [13, 19]: 98
Plant response rating, Galium [13, 20]: 100
